Experimental data from a melting point compilation (Tetko et al.; mined from patent text by program, amines drawn as free bases though some values may be those of a salt).

Point of comparison: `CC(C)(CC(F)(F)F)NC(=N)NC#N`, melting point 153 °C. Against it:
- FC(F)(F)c1ccc2nccc(N3CCN(C(=S)NCc4ccccc4)CC3)c2c1 — higher, 158 to 159 °C
- CN(C)C1CCc2c(c3ccccc3n2C)C1 (stereo not given) — higher, > 300 °C
- CC(C)(C(=O)O)C(=O)Oc1ccc(C(=O)c2ccccc2)cc1 — lower, 147 to 150 °C
- CCCc1c(OCCCOc2c(C(C)=O)ccc(OCCCC(=O)O)c2CCC)ccc(C(C)=O)c1O — lower, 96 to 99 °C
- CC1(C)CNS(=O)(=O)N1 — lower, 80 to 83 °C
- CS(=O)(=O)c1ccc(-c2cnn(-c3ccc(Cl)c(F)c3)c(=O)c2-c2ccc(F)cc2)cc1 — lower, 102 to 110 °C
- O=S(=O)(CCl)c1c(Cl)nc(Cl)nc1Cl — not separable, 152 to 153 °C
- C#CCOCc1nnc(Cl)c2ccccc12 — lower, 131 to 132 °C
- CC(NC(=O)N(C)O)c1ccc(OCc2ccccc2)cc1 (stereo not given) — lower, 105 to 106 °C
- Cn1nc(-c2cnc(N)nc2-c2ccccc2)ccc1=O — higher, 254 to 255 °C
- COc1ccc(C(=O)OC2C(OC(C)=O)C=C(C)C(=O)CC2(C)C)cc1 (stereo not given) — lower, 78 to 80 °C
- O=C1N(C(c2ccccc2)c2ccccc2)c2ccccc2C1(O)c1cc2c(cc1O)OCCO2 (stereo not given) — higher, 210 to 212 °C
- Cn1c2ccccc2c2c(C(=O)C(F)(F)F)csc21 — lower, 138 to 140 °C
- CS(=O)(=O)c1ccc(N2CC(O)(C(F)(F)F)N=C2c2ccccc2)cc1 (stereo not given) — higher, 189 to 190 °C
- CCC(Sc1cc2ccccc2n1C)(C(=O)OC)c1ccccc1 (stereo not given) — lower, 90 to 91 °C
- C(=N\c1c(-c2ccccc2)cc(-c2ccccc2)cc1-c1ccccc1)/c1ccccn1 — lower, 141 to 144 °C
- Cc1ccc(-c2nnc(N(CCCCOCC(=O)O)C(C)C)nc2-c2ccc(C)cc2)cc1 — lower, 119 to 121 °C
- COc1ccc(N2CCN(c3c(C)c(C)c4c(c3C)CC(C)(CN3CCC(=O)CC3)O4)CC2)cc1 (stereo not given) — lower, 123 to 127 °C
- COc1cc(C2=NC(C)(C)CO2)cc(OC)c1SC — lower, 82.5 to 84.5 °C
- CCC/C(=C\C=C\C(=O)Oc1ccc([N+](=O)[O-])cc1)c1ccc(OC)cc1 — lower, 90 to 92 °C
- Cc1c(N)c(C)c2c(-c3ccc(C4CCCCC4)cc3)coc2c1C — lower, 139 to 140 °C
- CCN(CC)C(=O)Nc1ccc(S(=O)(=O)N2C(=O)C(N)(c3ccccc3Cl)c3cc(Cl)ccc32)cc1 (stereo not given) — higher, 195 to 196 °C
- C#CCN(C(=O)c1cc(C)oc1C(F)(F)F)S(=O)(=O)c1cccc(Cl)c1 — lower, 70 to 72 °C
- O=C(O)c1cn(C2CC2)c2c(C(F)(F)F)c(F)c(F)cc2c1=O — higher, 159 to 162 °C
- O=C1NC(C(=O)NCCO[N+](=O)[O-])C(c2cccnc2)S1 (stereo not given) — lower, 139 to 140 °C
- COC(=O)c1cc(OC)c(OCc2ccccc2)cc1N=CN(C)C — lower, 134 to 140 °C
- CC12CC(N3CCC(O)CC3)C(O)CC1CCC1C2CCC2(C)C(O)C(N3CCCC3)CC12 (stereo not given) — higher, 188 to 190 °C
- CC1(C)c2cc(OS(C)(=O)=O)ccc2OC1N1CCCCC1 (stereo not given) — lower, 97 to 98 °C
- CC(C)c1nn(-c2ccccc2)c(-c2ccc(F)cc2)c1CC[C@H]1C[C@H](O)CC(=O)O1 (relative stereo) — higher, 157 to 159 °C
- COc1ccc(-c2nnc(S)nc2-c2ccc(OC)cc2)cc1 — higher, 228 to 232 °C
- CC#CCOc1ccc(S(=O)(=O)C(C(=O)NO)c2cccc(Cl)c2)cc1 (stereo not given) — lower, 50 °C
- O=S(=O)(Nc1ccc(Cl)cc1C(=NOCc1ccc(Br)cc1)c1ccccc1)C(F)(F)F — lower, 55 to 56 °C
- CCCCC1(CCCC)CCc2c(OCc3ccc4ccccc4n3)cccc2C1O (stereo not given) — lower, 62 to 65 °C
- Cc1c(-c2ccc(Cl)cc2)[nH]c2ccc(OCc3ccccc3)cc12 — lower, 134 to 136 °C
- Cc1ccc(S(=O)(=O)OCC2CCN(c3nc4ccccc4s3)CC2)cc1 — higher, 184 °C
- CNc1ncc(S(=O)(=O)NC(=O)NC(C)C)c(Nc2cccc(C)c2)n1 — higher, 206 to 207 °C
- CS(=O)(=O)CCCOc1cccc2c1ccn2-c1ccnc(NC2CCC(C(=O)N3CCC(CN)CC3)CC2)n1 (stereo not given) — lower, 124 to 126 °C
- COC(=O)CCCCCCc1nc(C)sc1C(=O)O — lower, 106 to 107 °C
- CN1CCC(N2C(=O)CN=C(c3ccccc3F)c3cc(Cl)ccc32)CC1 — lower, 145 to 146 °C
- CCCCOc1c(CNC(=O)OC(C)(C)C)n(CC2CC2)c(=O)c2ccc(OCc3ccccc3)cc12 — lower, 106 to 107 °C
- COc1ccccc1CN1CCC(=O)C(C2c3ccccc3Oc3ccccc32)C1 (stereo not given) — lower, 96 to 97 °C
- O=C(NCc1ccccc1Cl)C1Cc2ccccc2N1S(=O)(=O)c1ccc(-c2cccc(C(F)(F)F)c2)cc1 (stereo not given) — lower, 142 to 144 °C
- CC(C)NC1=NS(=O)(=O)c2cccc(Cl)c2N1 — lower, 124 to 125 °C
- O=C1c2cc(O)ccc2NCC1Cc1ccccc1 (stereo not given) — lower, 143 to 149 °C
- Cc1nc2c(n1C)CC(C(=O)N(C)C)CC2=O (stereo not given) — higher, 190 to 194 °C
- O=C(Cl)CCCC(=O)Cl — lower, 60.6 to 61.4 °C
- CCCc1nsc(N=C(Cl)N(C)C)c1C#N — lower, 108 to 109 °C
- CN(C)C=Nc1ncc(C#Cc2ccc(Cl)cc2)c(Cl)n1 — higher, 195 to 197 °C
- CC(C)OC(CC#N)=NC#N — lower, 66.5 °C
